The results in this text go back to the NIST ThermoML archive (doi:10.1016/j.jct.2008.02.004).

Numbers after ± are expanded uncertainties.

The data set can be described thus: molar enthalpy of vaporization or sublimation. The settings on record: 298.15 K; Liquid; calvet microcalorimetry.
For the molecule `O=Cc1cccs1` [2-thiophenealdehyde], the molar enthalpy was determined as 13.1 ± 0.526 kcal/mol. Take `Cc1ccsc1C=O` [3-methyl-2-thiophenecarboxaldehyde]: the molar enthalpy was 13.8 ± 0.621 kcal/mol. As for `O=Cc1ccsc1` [3-formylthiophene], the molar enthalpy worked out at 12.6 ± 0.574 kcal/mol. With `CCc1ccc(C=O)s1` [2-thiophenecarboxaldehyde, 5-ethyl-], the molar enthalpy is 14.9 ± 0.621 kcal/mol. For the molecule `Cc1ccc(C=O)s1` [5-methyl-2-thiophenecarbaldehyde], the molar enthalpy is 13.4 ± 0.574 kcal/mol.
